Results taken from ChEMBL document CHEMBL1201862, “PubChem BioAssay data set” (2004).
Active and inactive are the calls of the source.

What was measured:
[1] = NIH-3T3 fibroblast cytotoxicity, dose response, cytotoxicity control, cell-based, fluorescence, Alamar Blue, secondary assay (AID 2327); type: functional;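 further: NIH-3T3 mouse fibroblasts cultured with fluconazole at 8 µg/mL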
[2] = fluconazole-exposed Candida albicans growth modulators – fluorescence, retest, confirmation (AID 2467); type: functional, cell-based
[3] = target: Serine/threonine-protein phosphatase (Candida dubliniensis (strain CD36 / CBS 7987 / NCPF 3949 / NRRLY-17841) (Yeast), UniProt B9W6M3); test: blockers of CaCl2-induced CDRE-lacZ signaling – S. cerevisiae, luminescence, secondary, dose response (AID 2388); type: functional, cell-based;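 further: yeast reporter cells carrying a calcineurin-responsive lacZ construct stimulated with calcium chloride; luminescent beta-galactosidase reporter signal in whole cells rather than isolated phosphatase activity; potency for inhibition where a drop in reporter signal means calcineurin blockade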
[4] = target: ATP-dependent molecular chaperone HSP82 (Candida albicans (strain WO-1) (Yeast), UniProt C4YTQ8); test: steroid-induced GRE reporter decrease in yeast – S. cerevisiae, luminescence, Hsp90 inhibitor project, dose response (AID 2400); type: functional, cell-based;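 further: beta-galactosidase luminescence from glucocorticoid response element reporter as proxy for Hsp90 function; inhibitor potency where signal loss means Hsp90 inhibition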
[5] = Luminescence-based cell-based high throughput dose response assay to identify activators of the DAF-12 from the parasite S. stercoralis (ssDAF-12).; type: functional
[6] = target: T1, Oxysterols receptor LXR-beta (Homo sapiens, UniProt P55055); type: functional, cell-based;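 further: Cell-based luminescence dose-response assay of agonist activity at LXR, run as a confirmatory counterscreen to a daf-12 agonist screen; HEK293 cells with Gal4-LXR fusion and GAL4-driven luciferase reporter; agonist potency from rising luciferase signal of a Gal4-LXR reporter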
T1 sequence (P55055 whole entry): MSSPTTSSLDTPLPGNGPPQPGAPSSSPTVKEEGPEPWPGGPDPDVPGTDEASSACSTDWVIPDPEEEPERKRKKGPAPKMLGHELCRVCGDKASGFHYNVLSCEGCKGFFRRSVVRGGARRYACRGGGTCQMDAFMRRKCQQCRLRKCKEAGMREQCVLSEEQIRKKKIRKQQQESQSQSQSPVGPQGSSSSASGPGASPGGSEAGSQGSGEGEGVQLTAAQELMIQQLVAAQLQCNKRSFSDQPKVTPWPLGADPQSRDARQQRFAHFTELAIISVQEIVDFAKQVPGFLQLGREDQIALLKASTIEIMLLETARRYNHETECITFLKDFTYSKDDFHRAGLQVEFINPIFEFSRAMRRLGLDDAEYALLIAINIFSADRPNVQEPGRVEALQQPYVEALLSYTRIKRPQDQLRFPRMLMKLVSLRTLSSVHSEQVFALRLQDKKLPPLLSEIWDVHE

[7] = cells
[8] = microbe, parasite or virus in culture; type: functional; conditions: Mycobacterium tuberculosis
[9] = viability of PTEN-deleted HCT116 cells – cell-based, HCT116 PTEN knockout, dose response (AID 1047); type: functional;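 further: HCT116 colon tumor cells with PTEN knocked out; cells exposed to compound for 60 hours before readout; potency for loss of cell viability measured by luminescence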
[10] = viability of HCT116 lacking mutant beta-catenin – cell-based, human colon tumor, dose response (AID 1045); type: functional;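 further: HCT116 colon tumor cells with beta catenin knocked out; cells exposed to compound for 60 hours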
[11] = target: T2, Microphthalmia-associated transcription factor (Homo sapiens, UniProt O75030); test: reducers of TRPM1 reporter luminescence, concentration series – cell-based, SK-MEL-5, cherry-picked, set 3, MITF inhibitor project, dose response (AID 493073); type: functional;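 further: SK-MEL-5 melanoma cells with luciferase driven by the MITF target TRPM1 promoter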
T2 sequence (O75030 whole entry): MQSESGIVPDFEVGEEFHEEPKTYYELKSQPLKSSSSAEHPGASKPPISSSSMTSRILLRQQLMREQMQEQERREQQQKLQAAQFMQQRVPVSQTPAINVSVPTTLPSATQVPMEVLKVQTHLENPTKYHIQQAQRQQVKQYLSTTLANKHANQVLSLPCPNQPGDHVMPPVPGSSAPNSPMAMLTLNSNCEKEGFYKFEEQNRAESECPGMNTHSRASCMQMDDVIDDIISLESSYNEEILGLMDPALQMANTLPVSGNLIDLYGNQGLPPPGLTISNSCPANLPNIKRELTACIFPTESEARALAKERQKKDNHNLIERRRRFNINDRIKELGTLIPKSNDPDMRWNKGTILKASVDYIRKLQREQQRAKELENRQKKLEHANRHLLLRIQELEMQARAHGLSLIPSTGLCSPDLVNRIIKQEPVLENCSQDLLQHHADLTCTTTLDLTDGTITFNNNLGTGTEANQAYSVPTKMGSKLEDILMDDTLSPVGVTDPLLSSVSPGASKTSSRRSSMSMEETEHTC

[12] = test system: INS1; test: INS-1E survival protection against cytokine death – cell-based, luminescence, retest, dose response (AID 449756); type: functional; conditions: Rattus norvegicus;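 further: cell death triggered by IL-1 beta plus TNF-alpha plus IFN-gamma mixture; protective hits raise ATP signal compared with cytokine alone wells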
[13] = test system: A-375; test: proliferation inhibition in MITF-low A375 cells – cell-based, cherry-pick samples, set 2, counter-screen for MITF modulator project, dose response (AID 540335); type: functional; conditions: Homo sapiens
[14] = test system: HEK293; test: cells; type: functional, cell-based; conditions: Homo sapiens
[15] = target: Nuclear receptor subfamily 0 group B member 1 (Homo sapiens, UniProt P51843); test: Luminescence-based cell-based high throughput dose response assay for inhibitors of the orphan nuclear receptor subfamily 0, group B, member 1 (DAX1; NR0B1). [Related pubchem assays (depositor defined):AID504766, AID504790]; type: functional
[16] = target: Cystic fibrosis transmembrane conductance regulator/Golgi-associated PDZ and coiled-coil motif-containing protein (Homo sapiens, UniProt P13569+Q9HD26); test: potency against CAL PDZ-peptide interaction – biochemical, fluorescence polarization, Cerulean-tagged CAL PDZ, cherry-picks, dose response (AID 504773)
[17] = target: T3, Hexokinase HKDC1 (Homo sapiens, UniProt Q2TB90); test: inhibition of HKDC1 glucose phosphorylation – biochemical, W721R variant, dose response (AID 504729); type: functional
T3 sequence (Q2TB90 whole entry): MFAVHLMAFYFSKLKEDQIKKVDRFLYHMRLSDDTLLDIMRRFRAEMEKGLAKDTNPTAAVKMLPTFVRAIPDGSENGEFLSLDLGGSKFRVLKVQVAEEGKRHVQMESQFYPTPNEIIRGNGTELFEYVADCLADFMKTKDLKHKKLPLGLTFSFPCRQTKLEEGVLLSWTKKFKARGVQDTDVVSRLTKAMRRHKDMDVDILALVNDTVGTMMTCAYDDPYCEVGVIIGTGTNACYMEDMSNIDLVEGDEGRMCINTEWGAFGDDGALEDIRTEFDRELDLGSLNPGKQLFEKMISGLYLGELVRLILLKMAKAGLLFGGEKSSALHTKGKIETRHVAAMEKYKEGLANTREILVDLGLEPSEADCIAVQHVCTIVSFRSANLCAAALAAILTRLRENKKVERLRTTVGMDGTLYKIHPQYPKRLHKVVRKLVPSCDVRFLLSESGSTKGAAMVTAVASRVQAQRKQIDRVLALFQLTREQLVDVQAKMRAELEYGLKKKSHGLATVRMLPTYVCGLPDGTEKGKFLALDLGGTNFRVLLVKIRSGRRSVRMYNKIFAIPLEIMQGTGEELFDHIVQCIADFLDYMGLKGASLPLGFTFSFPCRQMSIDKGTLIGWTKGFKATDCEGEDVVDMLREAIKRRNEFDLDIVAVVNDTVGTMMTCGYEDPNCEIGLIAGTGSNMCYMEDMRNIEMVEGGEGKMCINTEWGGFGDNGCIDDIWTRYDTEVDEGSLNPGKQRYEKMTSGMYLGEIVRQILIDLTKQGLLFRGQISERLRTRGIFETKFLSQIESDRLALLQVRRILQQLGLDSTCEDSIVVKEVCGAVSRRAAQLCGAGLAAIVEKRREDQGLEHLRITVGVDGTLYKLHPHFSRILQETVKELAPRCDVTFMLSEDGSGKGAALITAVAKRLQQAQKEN

[18] = target: T4, Hexokinase-1 (Homo sapiens, UniProt P19367); test: hexokinase 1 activity inhibitors, potency – biochemical, set 2, resazurin fluorescence coupled readout, selectivity assay for HKDC1 inhibitor project, SAR follow-up (AID 588356); type: functional
T4 sequence (P19367 whole entry): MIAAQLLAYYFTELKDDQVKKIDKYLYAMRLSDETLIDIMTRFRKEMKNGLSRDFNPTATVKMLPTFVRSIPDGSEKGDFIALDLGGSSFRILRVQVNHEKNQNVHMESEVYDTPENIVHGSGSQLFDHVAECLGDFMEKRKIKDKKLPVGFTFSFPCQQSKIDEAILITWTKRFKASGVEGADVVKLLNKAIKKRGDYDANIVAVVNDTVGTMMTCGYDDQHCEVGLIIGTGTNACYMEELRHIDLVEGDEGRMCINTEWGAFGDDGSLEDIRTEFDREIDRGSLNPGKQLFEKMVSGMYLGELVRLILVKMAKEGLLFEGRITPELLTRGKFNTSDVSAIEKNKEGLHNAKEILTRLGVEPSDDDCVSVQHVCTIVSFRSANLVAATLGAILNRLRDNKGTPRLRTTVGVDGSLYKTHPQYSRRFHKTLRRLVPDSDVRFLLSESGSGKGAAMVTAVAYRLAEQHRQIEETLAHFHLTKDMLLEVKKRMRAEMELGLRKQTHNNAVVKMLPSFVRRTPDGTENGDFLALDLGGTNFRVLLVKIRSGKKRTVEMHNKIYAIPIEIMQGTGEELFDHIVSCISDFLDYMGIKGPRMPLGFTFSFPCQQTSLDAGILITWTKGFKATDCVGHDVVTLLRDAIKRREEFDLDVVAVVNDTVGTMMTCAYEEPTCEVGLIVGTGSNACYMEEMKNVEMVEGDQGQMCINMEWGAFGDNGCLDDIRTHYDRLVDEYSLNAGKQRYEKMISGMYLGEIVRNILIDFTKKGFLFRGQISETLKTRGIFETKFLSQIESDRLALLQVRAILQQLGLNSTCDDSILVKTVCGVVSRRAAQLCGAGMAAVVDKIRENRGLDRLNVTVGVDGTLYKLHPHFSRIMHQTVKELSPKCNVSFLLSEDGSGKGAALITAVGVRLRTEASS

[19] = target: T5, Replicative DNA helicase DnaB (Mycobacterium tuberculosis, UniProt P9WMR3); test: DnaB intein splicing inhibitors, dose response, biochemical, cell-free fluorescence (AID 449749); type: functional
T5 sequence (P9WMR3 whole entry): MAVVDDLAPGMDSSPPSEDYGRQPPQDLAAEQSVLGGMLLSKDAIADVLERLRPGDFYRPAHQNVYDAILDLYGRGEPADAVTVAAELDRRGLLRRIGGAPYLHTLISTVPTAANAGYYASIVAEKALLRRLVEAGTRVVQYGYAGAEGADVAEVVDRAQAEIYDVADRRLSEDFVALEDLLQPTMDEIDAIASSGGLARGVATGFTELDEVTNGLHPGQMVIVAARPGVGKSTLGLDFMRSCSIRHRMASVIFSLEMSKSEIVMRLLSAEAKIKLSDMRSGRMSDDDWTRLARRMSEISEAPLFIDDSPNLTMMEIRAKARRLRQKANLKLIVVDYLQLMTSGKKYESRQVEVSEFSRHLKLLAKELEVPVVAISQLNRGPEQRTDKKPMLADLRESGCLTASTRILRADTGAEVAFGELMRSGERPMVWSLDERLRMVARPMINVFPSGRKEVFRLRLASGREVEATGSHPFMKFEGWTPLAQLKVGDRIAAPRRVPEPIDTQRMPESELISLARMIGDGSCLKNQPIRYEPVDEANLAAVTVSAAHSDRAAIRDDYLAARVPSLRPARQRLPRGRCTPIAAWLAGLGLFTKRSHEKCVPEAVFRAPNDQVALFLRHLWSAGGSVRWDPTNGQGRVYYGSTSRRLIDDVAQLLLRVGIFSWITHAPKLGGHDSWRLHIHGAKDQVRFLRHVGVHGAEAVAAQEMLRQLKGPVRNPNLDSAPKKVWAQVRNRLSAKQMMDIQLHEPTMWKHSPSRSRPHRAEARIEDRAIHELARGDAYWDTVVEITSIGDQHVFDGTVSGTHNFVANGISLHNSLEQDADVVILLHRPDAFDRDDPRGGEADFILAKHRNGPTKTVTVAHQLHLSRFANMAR

[20] = target: T6, Protein RecA (Mycobacterium tuberculosis, UniProt P9WHJ3); test: Fluorescence Cell-Free Homogeneous Dose Retest to Identify Inhibitors of RecA-Intein Splicing Activity. [Related pubchem assays (depositor defined):AID2097, AID2223, AID489010, AID492950]; type: functional
T6 sequence (P9WHJ3 whole entry): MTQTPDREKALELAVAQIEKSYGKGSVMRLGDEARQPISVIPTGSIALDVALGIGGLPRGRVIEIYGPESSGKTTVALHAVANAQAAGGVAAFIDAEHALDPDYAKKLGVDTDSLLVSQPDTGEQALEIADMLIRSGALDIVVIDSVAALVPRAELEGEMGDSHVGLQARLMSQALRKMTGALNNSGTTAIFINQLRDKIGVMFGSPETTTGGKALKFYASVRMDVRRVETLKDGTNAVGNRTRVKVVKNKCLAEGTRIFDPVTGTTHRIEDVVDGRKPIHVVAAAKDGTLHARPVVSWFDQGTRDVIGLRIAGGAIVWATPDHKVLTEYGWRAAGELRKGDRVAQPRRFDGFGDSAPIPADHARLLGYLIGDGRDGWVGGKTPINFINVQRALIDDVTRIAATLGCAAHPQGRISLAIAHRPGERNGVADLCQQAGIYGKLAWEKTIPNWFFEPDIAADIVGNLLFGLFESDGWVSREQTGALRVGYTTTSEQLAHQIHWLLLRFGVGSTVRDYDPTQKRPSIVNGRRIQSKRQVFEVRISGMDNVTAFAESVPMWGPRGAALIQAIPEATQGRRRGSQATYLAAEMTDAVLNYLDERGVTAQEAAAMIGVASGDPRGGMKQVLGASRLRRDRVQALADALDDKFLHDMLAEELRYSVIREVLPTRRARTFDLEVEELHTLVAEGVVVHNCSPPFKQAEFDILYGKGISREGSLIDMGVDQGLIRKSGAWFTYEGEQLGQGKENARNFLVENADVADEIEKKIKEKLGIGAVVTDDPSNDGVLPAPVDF

[21] = target: T3, Hexokinase HKDC1; test: analog inhibition of human HKDC1 activity – biochemical, set 2, SAR follow-up (AID 588355); type: functional

Sequence of ATP-dependent molecular chaperone HSP82 (C4YTQ8 whole entry): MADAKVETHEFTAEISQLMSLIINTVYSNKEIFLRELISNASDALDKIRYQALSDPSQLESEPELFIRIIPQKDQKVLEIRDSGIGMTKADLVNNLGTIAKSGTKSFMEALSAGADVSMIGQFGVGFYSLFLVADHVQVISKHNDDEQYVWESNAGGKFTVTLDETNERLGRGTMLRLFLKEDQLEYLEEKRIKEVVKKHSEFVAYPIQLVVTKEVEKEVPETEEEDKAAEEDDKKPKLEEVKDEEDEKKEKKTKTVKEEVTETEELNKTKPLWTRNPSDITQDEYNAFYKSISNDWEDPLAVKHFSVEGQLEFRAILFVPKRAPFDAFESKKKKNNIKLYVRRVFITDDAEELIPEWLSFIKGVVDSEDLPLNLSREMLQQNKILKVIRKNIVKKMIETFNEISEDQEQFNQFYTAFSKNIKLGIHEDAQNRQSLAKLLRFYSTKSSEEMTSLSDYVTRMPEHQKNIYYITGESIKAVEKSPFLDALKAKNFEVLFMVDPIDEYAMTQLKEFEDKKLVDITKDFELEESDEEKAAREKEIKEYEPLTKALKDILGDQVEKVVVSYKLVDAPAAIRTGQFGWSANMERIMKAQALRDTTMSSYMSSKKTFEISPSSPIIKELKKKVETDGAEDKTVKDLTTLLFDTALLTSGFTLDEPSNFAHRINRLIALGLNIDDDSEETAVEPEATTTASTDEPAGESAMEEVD
Sequence of Nuclear receptor subfamily 0 group B member 1 (P51843 whole entry): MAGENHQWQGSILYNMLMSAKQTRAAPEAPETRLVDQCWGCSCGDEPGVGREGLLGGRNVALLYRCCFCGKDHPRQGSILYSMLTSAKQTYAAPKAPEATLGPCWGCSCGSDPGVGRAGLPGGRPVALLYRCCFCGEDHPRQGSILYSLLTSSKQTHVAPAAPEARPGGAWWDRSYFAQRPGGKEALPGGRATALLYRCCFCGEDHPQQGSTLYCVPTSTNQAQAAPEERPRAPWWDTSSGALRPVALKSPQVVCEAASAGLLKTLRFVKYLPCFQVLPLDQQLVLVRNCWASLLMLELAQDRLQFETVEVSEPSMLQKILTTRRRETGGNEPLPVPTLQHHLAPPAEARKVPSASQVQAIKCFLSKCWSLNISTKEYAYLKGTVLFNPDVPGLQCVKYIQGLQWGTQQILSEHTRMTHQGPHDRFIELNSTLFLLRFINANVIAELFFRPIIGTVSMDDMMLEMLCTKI
Sequence of Cystic fibrosis transmembrane conductance regulator/Golgi-associated PDZ and coiled-coil motif-containing protein (P13569 whole entry, other chains not shown): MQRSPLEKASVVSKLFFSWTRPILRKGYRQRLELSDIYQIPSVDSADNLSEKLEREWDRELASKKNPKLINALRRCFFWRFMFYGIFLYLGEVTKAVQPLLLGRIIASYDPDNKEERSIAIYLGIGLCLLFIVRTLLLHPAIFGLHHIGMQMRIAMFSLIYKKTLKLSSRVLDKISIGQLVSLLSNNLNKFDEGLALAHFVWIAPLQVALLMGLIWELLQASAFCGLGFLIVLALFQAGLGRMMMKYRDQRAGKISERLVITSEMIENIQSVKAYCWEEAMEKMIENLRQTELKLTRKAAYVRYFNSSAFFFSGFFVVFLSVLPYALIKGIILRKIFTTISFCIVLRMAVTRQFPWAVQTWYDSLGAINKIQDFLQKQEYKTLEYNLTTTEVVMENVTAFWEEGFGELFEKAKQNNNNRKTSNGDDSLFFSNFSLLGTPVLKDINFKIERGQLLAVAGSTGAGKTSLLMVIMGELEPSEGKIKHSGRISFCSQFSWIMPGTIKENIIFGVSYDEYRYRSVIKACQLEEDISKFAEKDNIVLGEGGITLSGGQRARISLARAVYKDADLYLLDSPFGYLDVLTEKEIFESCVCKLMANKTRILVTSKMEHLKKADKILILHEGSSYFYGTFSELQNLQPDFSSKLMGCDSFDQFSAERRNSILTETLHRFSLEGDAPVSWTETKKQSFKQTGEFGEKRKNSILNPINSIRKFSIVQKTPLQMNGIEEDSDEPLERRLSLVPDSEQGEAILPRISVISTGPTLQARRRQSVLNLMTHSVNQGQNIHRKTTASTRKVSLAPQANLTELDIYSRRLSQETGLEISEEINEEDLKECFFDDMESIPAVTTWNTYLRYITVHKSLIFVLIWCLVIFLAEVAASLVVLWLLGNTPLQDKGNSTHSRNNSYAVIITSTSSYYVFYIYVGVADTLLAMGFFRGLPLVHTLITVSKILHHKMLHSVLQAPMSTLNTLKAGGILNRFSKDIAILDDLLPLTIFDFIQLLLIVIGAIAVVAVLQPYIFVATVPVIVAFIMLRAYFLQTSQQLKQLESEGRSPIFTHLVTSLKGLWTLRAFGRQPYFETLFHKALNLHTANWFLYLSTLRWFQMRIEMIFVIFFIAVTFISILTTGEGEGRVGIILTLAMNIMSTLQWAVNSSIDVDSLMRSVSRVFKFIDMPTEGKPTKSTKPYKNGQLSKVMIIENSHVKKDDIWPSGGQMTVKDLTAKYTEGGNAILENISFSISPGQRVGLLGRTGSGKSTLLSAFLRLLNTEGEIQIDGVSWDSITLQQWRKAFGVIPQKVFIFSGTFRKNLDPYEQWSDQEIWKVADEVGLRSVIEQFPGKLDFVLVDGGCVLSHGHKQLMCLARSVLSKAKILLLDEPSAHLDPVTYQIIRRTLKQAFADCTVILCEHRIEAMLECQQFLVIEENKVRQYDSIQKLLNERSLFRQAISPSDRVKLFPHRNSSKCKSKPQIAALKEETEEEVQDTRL
Sequence of Serine/threonine-protein phosphatase (B9W6M3 whole entry): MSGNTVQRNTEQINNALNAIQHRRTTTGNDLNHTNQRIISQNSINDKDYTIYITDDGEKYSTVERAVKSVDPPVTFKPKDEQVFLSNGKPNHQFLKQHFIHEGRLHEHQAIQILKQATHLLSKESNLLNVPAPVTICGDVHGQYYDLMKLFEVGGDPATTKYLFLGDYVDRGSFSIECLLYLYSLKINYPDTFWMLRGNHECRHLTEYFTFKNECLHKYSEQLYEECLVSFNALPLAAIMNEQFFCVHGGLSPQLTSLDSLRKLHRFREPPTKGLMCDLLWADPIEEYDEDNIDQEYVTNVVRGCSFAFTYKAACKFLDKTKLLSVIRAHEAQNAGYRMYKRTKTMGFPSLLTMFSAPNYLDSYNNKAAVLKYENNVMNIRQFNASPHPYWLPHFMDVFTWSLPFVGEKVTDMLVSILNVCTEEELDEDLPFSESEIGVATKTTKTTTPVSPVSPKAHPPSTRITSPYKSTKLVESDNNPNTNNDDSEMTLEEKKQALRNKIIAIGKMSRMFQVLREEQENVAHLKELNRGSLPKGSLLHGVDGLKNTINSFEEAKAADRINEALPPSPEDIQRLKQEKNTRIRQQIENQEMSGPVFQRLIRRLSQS

CN1/C(=C/C(=O)c2cccs2)Sc2ccccc21
active: EC50 [1] 14.7 µM | EC50 [2] 2.02 µM
inactive: EC50 [3] > 180 µM | EC50 [4] > 150 µM | IC50 [5] > 67.5 µM | EC50 [6] > 67.5 µM | EC50 [7] > 67.5 µM

CC1CCC(C(C)C)C(OC(=O)Cn2c(-c3ccc(F)cc3)[n+](C)c3ccccc32)C1 (stereo unspecified)
active: CC50 [8] 40 µM | EC50 [9] 4.98 µM | EC50 [10] 4.18 µM | AC50 [11] 5.57 µM | AC50 [12] 3.69 µM | AC50 [13] 47.2 µM

O=C(c1ccc(Br)cc1)c1coc2ccc(O)cc12
inactive: IC50 [14] > 67.5 µM | IC50 [15] > 67.5 µM

CCOc1ccc2c(c1)C(NC(C)=O)C(=O)N2CCN1CCOCC1 (stereo unspecified)
inactive: IC50 [18] > 80 µM
active: AC50 [16] 27.3 µM | IC50 [17] 6.63 µM | AC50 [19] 27.8 µM | EC50 [20] 12.6 µM | IC50 [21] 8.44 µM
